Measured values: PubChem BioAssay AID1996
Values after ≈ are worked out from the molar mass of the structure shown.

Settings: buffer; pH 7.4; 200.0 µM

| Structure (SMILES) | solubility kinetic |
| --- | --- |
| CCS(=O)(=O)N1CCC(c2nc3ccccc3[nH]2)CC1 | 0.04 mg/mL (≈ 136 µM) |
| O=C(COC(=O)c1cc(Cl)ccc1[N+](=O)[O-])NC1CC1 | > 0.0448 mg/mL |
| Cc1ccccc1NC(=S)NC(=O)C1CCCCC1 | 0.001 mg/mL (≈ 3.62 µM) |
| Cc1ccc(-c2csc3nc[nH]c(=O)c23)cc1C | 0.0066 mg/mL (≈ 25.7 µM) |
| COc1ccccc1CNC(=O)COC(=O)c1nccnc1N | 0.0397 mg/mL (≈ 126 µM) |
| NCCS(=O)(=O)O | 0.0012 mg/mL (≈ 9.59 µM) |
| O=C(Cc1cccs1)Nc1nc(-c2cccnc2)cs1 | 0.0053 mg/mL (≈ 17.6 µM) |
| O=C(CCN1CCN(CCO)CC1)Nc1cccc(Br)c1 | > 0.0534 mg/mL |
| O=C(NC1CCCCCCC1)c1ccc(F)cc1 | 0.0258 mg/mL (≈ 103 µM) |
| Nc1nccc(-c2cccs2)n1 | > 0.0266 mg/mL |
| Cc1cc(Cl)cc(C)c1OCCNCc1ccccc1.O=C(O)C(=O)O | 0.0445 mg/mL |
| Nc1cccc(Oc2cnccn2)c1 | > 0.0281 mg/mL |
| O=C(c1ccc(N2C(=O)c3ccccc3C2=O)cc1)N1CCCCC1 | > 0.0502 mg/mL |
| O=C(Nc1nc2ccccc2[nH]1)c1ccccc1OC(F)F | 0.0089 mg/mL (≈ 29.3 µM) |
| O=C(Nc1nc2ccccc2[nH]1)c1cc2ccccc2o1 | 0.0021 mg/mL (≈ 7.57 µM) |
| CSCCNC(=O)c1ccc2nc(C3CCCCC3)oc2c1 | 0.0132 mg/mL (≈ 41.5 µM) |
| CC(=O)c1c(-c2ccccc2)[nH]c2ccccc12 | 0.0014 mg/mL (≈ 5.95 µM) |
| CC1(C)CCc2cc(CN3CCN(c4ccccn4)CC3)ccc2O1 | 0.0475 mg/mL (≈ 141 µM) |
| CCOc1ccc(N2C(=O)CNC2=S)cc1 | > 0.0354 mg/mL |
| CCOc1ccccc1NC(=S)N1CCCc2ccccc21 | 0.0105 mg/mL (≈ 33.6 µM) |
| COc1ccc(CNC(=O)C2(CC(=O)NC(C)(C)C)CCCC2)cc1 | > 0.052 mg/mL |
| Cc1nc(C(F)(F)F)ccc1C(=O)N1CCCCC1 | 0.0365 mg/mL (≈ 134 µM) |
| CC1C(=O)N2CCCc3cc(S(=O)(=O)N(C)CCC#N)cc1c32 (stereo not drawn) | > 0.05 mg/mL |
| N#CC1(NC(=O)COC(=O)/C=C/c2ccc3ccccc3n2)CCCCC1 | 0.003 mg/mL (≈ 8.25 µM) |
| O=C(NC12CC3CC(CC(C3)C1)C2)c1ccc([N+](=O)[O-])cc1 | 0.0054 mg/mL (≈ 18 µM) |

| Structure (SMILES) | solubility kinetic |
| --- | --- |
| CCOC(=O)C1=C(C)NC(C)=C(C(=O)OCC)C1c1ccco1 | 0.0088 mg/mL (≈ 27.6 µM) |
| O=C(CN1C(=O)c2ccccc2C1=O)N1CCN=C1c1ccccc1 | > 0.05 mg/mL |
| CC1CCCCN1C(C(=O)O)c1ccccc1.Cl (stereo not drawn) | > 0.0405 mg/mL |
| COc1ccccc1NC(=S)N1CC(C)(C)C1=O | 0.003 mg/mL (≈ 11.3 µM) |
| O=C(Nc1cccc(Cl)c1)Nc1csc([N+](=O)[O-])c1 | 0.0005 mg/mL (≈ 1.68 µM) |
| O=C(O)c1cc(Oc2ccc(C(F)(F)F)cc2Cl)ccc1[N+](=O)[O-] | > 0.0542 mg/mL |
| CC(C)[C@H](N[C@@H](C)c1ccccc1)c1c(O)ccc2ccccc12 | 0.0022 mg/mL (≈ 6.89 µM) |
| Cc1ccc(N=Cc2c(O)c3ccccc3oc2=O)c(C)c1 | < 0.0006 mg/mL |
| CCOC(=O)c1c(C)nc(C(Cl)(Cl)Cl)nc1N | 0.0217 mg/mL (≈ 72.7 µM) |
| CCN(CC)P(=O)(c1nccn1C)N(CC)CC | 0.0407 mg/mL (≈ 149 µM) |
| O=C(O)Cc1c[nH]c2ccc(O)cc12 | > 0.0287 mg/mL |
| N#Cc1ccc(C(=O)CSc2n[nH]c(=O)n2-c2cccnc2)cc1 | > 0.0506 mg/mL |
| O=C(Cc1ccc(Br)cc1)Nc1ccc(Cl)cc1 | < 0.0007 mg/mL |
| O=C(CCNC(=O)c1ccc(Br)cc1)Nc1ncccc1O | 0.0523 mg/mL (≈ 144 µM) |
| Nc1nc(Nc2ccccc2F)nc(NCCO)c1[N+](=O)[O-] | 0.0458 mg/mL (≈ 149 µM) |
| COc1ccccc1NCC(=O)c1ccc(C)c(C)c1 | 0.0026 mg/mL (≈ 9.65 µM) |
| CCOCC(=O)Nc1ccc(S(=O)(=O)NCC2CCCO2)cc1 (stereo not drawn) | > 0.0514 mg/mL |
| COc1ccc(NC(=O)CC(C)CC(=O)NCc2ccc(F)cc2)c(OC)c1 (stereo not drawn) | 0.0068 mg/mL (≈ 17.5 µM) |
| O=C(O)CCCC(=O)Nc1ccccc1Oc1ccccc1 | > 0.0449 mg/mL |
| O=C(/C=C(\O)c1ccccc1)C(=O)NNC(=O)c1ccccc1 | > 0.0465 mg/mL |
| CN(C)c1ccc(C=NCC2COc3ccccc3O2)cc1 (stereo not drawn) | > 0.0445 mg/mL |
| O=C1CCC([N+](=O)[O-])C(c2ccccc2C(F)(F)F)N1 (stereo not drawn) | > 0.0432 mg/mL |
| Cc1cc(NC(=O)Cc2ccccc2[N+](=O)[O-])no1 | 0.0166 mg/mL (≈ 63.5 µM) |
| Cc1cc(C)n(CC(=O)NC2CCCCC2C)c(=O)c1C#N (stereo not drawn) | 0.0167 mg/mL (≈ 55.4 µM) |
| O=C(O)CSCC(=O)N(c1ccccc1)c1ccccc1 | 0.0429 mg/mL (≈ 142 µM) |

| Structure (SMILES) | solubility kinetic |
| --- | --- |
| Cc1cccc(OCCC(=O)Nc2ccc(Cl)cc2F)c1 | < 0.0007 mg/mL |
| O=c1ccc(-c2nc3ccccc3n2Cc2ccc(Cl)cc2)c[nH]1 | 0.0387 mg/mL (≈ 115 µM) |
| COC(=O)c1c(-c2ccccc2)c[nH]c1C | 0.032 mg/mL (≈ 149 µM) |
| CCOc1ccc(C(=O)Nc2nc(C)c(C(=O)OC)s2)cc1 | < 0.0003 mg/mL |
| CC(=O)Nc1cccc(C(=O)OC2CCOC2=O)c1 (stereo not drawn) | > 0.0395 mg/mL |
| O=C(Nc1ccc2c(c1)CCC2)c1cccs1 | 0.0308 mg/mL (≈ 127 µM) |
| Cc1sc2ncnc(N3CCN(S(=O)(=O)c4ccc(C(C)(C)C)cc4)CC3)c2c1C | 0.0028 mg/mL (≈ 6.3 µM) |
| Cn1cnnc1SCC(=O)c1ccc2c(c1)NC(=O)CO2 | > 0.0456 mg/mL |
| O=C(CSc1ncnc2c1oc1ccccc12)NC1CCCC1 | 0.0034 mg/mL (≈ 10.4 µM) |
| CCC(Sc1nc(-c2ccccc2)c(-c2ccccc2)[nH]1)C(=O)O (stereo not drawn) | 0.0448 mg/mL (≈ 132 µM) |
| COc1ccc(C(=O)COC(=O)CNC(=O)c2ccc(C)s2)c(OC)c1 | > 0.0566 mg/mL |
| COC(=O)c1cc(C(C)=O)c(C)[nH]c1=O | > 0.0314 mg/mL |
| O=C(O)c1ccc([N+](=O)[O-])c(CS(=O)(=O)c2ccccc2)c1 | > 0.0482 mg/mL |
| CC(C)(C)NC(=O)NC(=O)CN1CCCCCCC1 | 0.0212 mg/mL (≈ 78.7 µM) |
| Cc1ccc(NC(=O)C2CCN(C(=O)c3ccco3)CC2)cc1 | > 0.0469 mg/mL |
| COC(=O)c1c(S(=O)(=O)N2CCOCC2)c(C)n(C)c1C | > 0.0475 mg/mL |
| Cn1cccc1C(=O)OCC(=O)Nc1ccc2[nH]c(=O)[nH]c2c1 | 0.0111 mg/mL (≈ 35.3 µM) |
| O=C1NCCCN1Cc1ccc(Cl)cc1 | > 0.0337 mg/mL |
| N#C/C(=C(/O)CO/N=C/c1ccccc1Cl)c1nc2ccccc2[nH]1 | < 0.0002 mg/mL |
| O=C(Nc1ccncc1)OCc1ccccc1 | > 0.0342 mg/mL |
| CCN(CC(=O)Nc1ccccc1OC)C(=O)CC1CCCC1 | > 0.0478 mg/mL |
| O=C(CCSc1ccc(Cl)cc1)NCc1ccccn1 | 0.0408 mg/mL (≈ 133 µM) |
| Nc1ccc(C(=O)O)cc1[N+](=O)[O-] | > 0.0273 mg/mL |
| CC(C)OCCCNC(=O)CN1C(=O)c2cccc3cccc1c23 | > 0.049 mg/mL |
| COc1cccc(CN(C)C(=O)c2ccc(N3CCCC3)c([N+](=O)[O-])c2)c1 | 0.0219 mg/mL (≈ 59.3 µM) |

| Structure (SMILES) | solubility kinetic |
| --- | --- |
| CCCNC(=O)c1ccc(COc2cccc3ccccc23)o1 | 0.0158 mg/mL (≈ 51.1 µM) |
| CCOC(=O)COc1cc2oc(=O)cc(C)c2cc1[N+](=O)[O-] | 0.003 mg/mL (≈ 9.76 µM) |
| Cn1c(C2CCCCC2)nc2ccccc21 | > 0.0321 mg/mL |
| CN(C(=O)c1ccoc1)c1ccc2ccccc2c1 | 0.0291 mg/mL (≈ 116 µM) |
| O=C(Cc1ccc2ccccc2c1)Nc1ccccc1Br | < 0.0007 mg/mL |
| O=C1/C(=C/c2cccs2)SC(=S)N1C1CCS(=O)(=O)C1 (stereo not drawn) | < 0.0007 mg/mL |
| O=C(Nc1ccc2c(c1)CCC2)c1cnc(Cl)c(Cl)c1 | < 0.0003 mg/mL |
| COC(=O)c1ccc(OC(=O)c2ccncc2)cc1O | > 0.041 mg/mL |
| c1cncc(-c2nc3ccccc3s2)c1 | 0.0227 mg/mL (≈ 107 µM) |
| CC1CCCCN1S(=O)(=O)c1csc(C(N)=O)c1 (stereo not drawn) | > 0.0433 mg/mL |
| O=C(CNCc1cccc2ccccc12)Nc1ccccc1[N+](=O)[O-] | 0.0054 mg/mL (≈ 16.1 µM) |
| Cc1cccc(NC(=O)CSc2nc3ccccc3c(=O)n2C)c1 | 0.0005 mg/mL (≈ 1.47 µM) |
| CCOc1ccccc1CNCC1CCCO1.Cl (stereo not drawn) | 0.0315 mg/mL |
| COc1ccc(/C=C2\SC(N3CCCCC3)=NC2=O)cc1OC | 0.0082 mg/mL (≈ 24.7 µM) |
| COc1cc(SC)ccc1C(=O)Nc1ccc2c(c1)CCC2 | 0.0022 mg/mL (≈ 7.02 µM) |
| COc1ccc(N2CCN(C(=O)/C=C/c3ccco3)CC2)cc1 | 0.0105 mg/mL (≈ 33.6 µM) |
| O=c1nc(-c2ccccc2Cl)c2cc(F)ccc2[nH]1 | 0.0389 mg/mL (≈ 142 µM) |
| COC(=O)C1=C(C)NC(=O)NC1c1ccco1 (stereo not drawn) | 0.0278 mg/mL (≈ 118 µM) |
| CCN(CC)S(=O)(=O)c1ccc(NC(=O)c2cc(=O)[nH]c3ccccc23)cc1 | 0.0039 mg/mL (≈ 9.76 µM) |
| Cc1ccn2c(NC3CCCC3)c(-c3ccccn3)nc2c1 | 0.0306 mg/mL (≈ 105 µM) |
| CN(C(=O)CSC(=O)c1ccccc1)c1ccccc1 | 0.0406 mg/mL (≈ 142 µM) |
| O=C1CC(Sc2cccs2)C(=O)N1c1ccccc1 (stereo not drawn) | 0.0417 mg/mL (≈ 144 µM) |
| N#Cc1cc2c([nH]c1=O)CCCC2 | > 0.0261 mg/mL |
| CC(OC(=O)C1CC1C)C(=O)Nc1ccc(Cl)cn1 (stereo not drawn) | 0.0409 mg/mL (≈ 145 µM) |
| O=C(OCc1cc(=O)n2ccsc2n1)c1ccccc1O | 0.0225 mg/mL (≈ 74.4 µM) |

| Structure (SMILES) | solubility kinetic |
| --- | --- |
| CCOC(=O)CNC(=O)c1c(C)nn(C)c1Cl | > 0.039 mg/mL |
| CCOc1ccccc1Nc1ccc2nonc2c1[N+](=O)[O-] | < 0.0002 mg/mL |
| CC(C)N1C(=O)CCC1C(=O)NCc1ccco1 (stereo not drawn) | 0.0292 mg/mL (≈ 117 µM) |
| Cc1cc(NC(=O)CN2CCN(C)CC2)no1 | 0.0224 mg/mL (≈ 94 µM) |
| CC1CCN(C(=O)c2ccc([N+](=O)[O-])o2)CC1 | > 0.0357 mg/mL |
| CCOc1ccccc1C(=O)Nc1cccc2ccccc12 | < 0.0006 mg/mL |
| CCCNC(=S)N1CCC(C(=O)c2ccc3c(c2)OCCO3)CC1 | 0.0413 mg/mL (≈ 119 µM) |
| CN(C)CCOc1cccc(Br)c1.O=C(O)C(=O)O | 0.0446 mg/mL |
| CN1CCC(NC(=S)Nc2cccc([N+](=O)[O-])c2)CC1 | > 0.0442 mg/mL |
| CNc1nc2c(c(=O)n(C)c(=O)n2C)n1CCCc1ccccc1 | > 0.0491 mg/mL |
| CCn1c(SCC(N)=O)nnc1-c1ccc2c(c1)OCO2 | > 0.046 mg/mL |
| CCC(=O)Nc1ccc(NCc2cccs2)cc1 | > 0.0391 mg/mL |
| COc1ccc(NC(=O)Cc2ccsc2)c(OC)c1 | > 0.0416 mg/mL |
| Cc1cc(C)c(C)c(S(=O)(=O)NCCCn2ccnc2)c1C | 0.0398 mg/mL (≈ 124 µM) |
| Cc1ccc(C(=O)O)c(C(=O)Nc2nc3ccccc3s2)c1 | > 0.0469 mg/mL |
| CC(=O)c1cc(CCC(=O)NC2CCCCCC2)oc1C | > 0.0437 mg/mL |
| CC1=CC(C)(C)NC(=S)N1C(C)c1ccccc1 (stereo not drawn) | 0.0072 mg/mL (≈ 27.6 µM) |
| Cc1cc(NC(=O)CN2C(=O)c3ccccc3C2=O)no1 | 0.0379 mg/mL (≈ 133 µM) |
| CN(C(=O)c1cccc(NC(=O)Cc2ccccc2)c1)c1ccccc1 | > 0.0517 mg/mL |
| COc1ccc(S(=O)(=O)NC(C)C(=O)N2CCCCCC2)cc1 (stereo not drawn) | > 0.0511 mg/mL |
| O=c1[nH]c2cccc(F)c2n2cccc12 | 0.0032 mg/mL (≈ 15.8 µM) |
| O=C(COC(=O)Cc1ccccc1)Nc1cccnc1Cl | > 0.0457 mg/mL |
| CN(CC(=O)Nc1cccc(F)c1)C(=O)CSc1ccccc1F | 0.0467 mg/mL (≈ 133 µM) |
